Data as given in EP0411111B1, “AMMONIUM COMPOUND, COMPOSITION CONTAINING IT AND DESINFECTION METHOD” (FABRICOM AIR CONDITIONING S.A., priority 1989, dated 1990).

Assays:
[1] = test system: Chrysosporium Keratinophilium; assay: fungicidal test on fungal strains found around pools; assay type: cell-based; conditions: in 24 heures; dissolved in water at a concentration below 50 ppm with 30 ppm Cu and 100 ppb Ag
Trichophyton rubrum = assay: as above; assay type: cell-based; conditions: in 24 heures; dissolved in water at a concentration below 50 ppm with 30 ppm Cu and 100 ppb Ag

## CCCCCCCCCCCCCCCC[N+](C)(C)CCCCCC[N+](C)(C)c1ccc(NC(=N)NC(=N)Nc2ccc([N+](C)(C)CCCCCC[N+](C)(C)CCCCCCCCCCCCCCCC)cc2)cc1 [exemple 30]
[1]
  action fongicide: action fongicide
Trichophyton rubrum
  action fongicide: action fongicide
